From ChEMBL document CHEMBL4699598, “Discovery of Novel Substituted N-(4-Amino-2-chlorophenyl)-5-chloro-2-hydroxybenzamide Analogues as Potent Human Adenovirus Inhibitors” (J Med Chem, 2020)

Experiments:
Human adenovirus 5 [1] = experiment: Antiviral activity against WT-Human adenovirus 5 infected in A549 cells assessed as fold reduction in virus yield at 10 fold of IC50 after 48 hrs endpoint dilution method; assay type: functional
Human adenovirus 5 [2] = experiment: Antiviral activity against wild-type Human adenovirus 5 infected in human A549 cells assessed as inhibition of viral DNA replication by measuring number of viral DNA copies at 2.7 uM after 24 hrs by RT-qPCR analysis (reference value: 100 +/- 0.16 %); assay type: functional; parameters: scale not given: the % may be the effect or the level left
[3] = Selectivity index, ratio of CC50 for cytotoxicity against human A549 cells assessed as reduction in cell viability incubated for 48 hrs by alamarBlue assay to IC50 for antiviral activity against Human adenovirus 5 infected in 293beta5 cells assessed as inhibition of plaque formation incubated for 7 days by GFP reporter gene assay; assay type: toxicity, cell-based; conditions: read-out: Ratio CC50/IC50
Human betaherpesvirus 5 [4] = experiment: Antiviral activity against human cytomegalovirus infected in HFF cells assessed as inhibition of viral replication by measuring number of viral DNA copies at 2.7 uM incubated for 72 hrs by RT-PCR analysis (reference value: 100 +/- 25.56 %); assay type: functional; parameters: scale not given: the % may be the effect or the level left
Human adenovirus 5 [5] = experiment: Antiviral activity against Human adenovirus 5 infected in 293beta5 cells assessed as inhibition of plaque formation at 10 uM incubated for 7 days by GFP reporter gene assay relative to control; assay type: functional; conditions: Human mastadenovirus C, HEK293, 168 h, time 7 day
Human adenovirus 5 [6] = experiment: Antiviral activity against GFP-fused Human adenovirus 5 infected in 293beta5 cells assessed as inhibition of plaque formation incubated for 7 days by GFP reporter gene assay; assay type: functional, organism-based; conditions: Human mastadenovirus C, HEK293, 168 h
Human adenovirus 5 [7] = experiment: Antiviral activity against Human adenovirus 5 infected in 293beta5 cells assessed as inhibition of virus infection at 10 fold IC50 measured after 5 mins by GFP reporter gene assay relative to control; assay type: functional, HEK293
Human adenovirus 5 [8] = experiment: Antiviral activity against wild-type Human adenovirus 5 infected in human A549 cells assessed as inhibition of virus entry incubated for 48 hrs by fluorescence assay; assay type: functional, organism-based; conditions: Human mastadenovirus C, A549, 48 h
[9] = Cytotoxicity against human A549 cells assessed as reduction in cell viability incubated for 48 hrs by alamarBlue assay; assay type: cell-based
Human adenovirus 5 [10] = experiment: Antiviral activity against wild-type Human adenovirus 5 infected in human A549 cells assessed as inhibition of viral entry by measuring nuclear associated viral genome level at 10 fold IC50 incubated for 45 mins by RT-PCR analysis (reference value: 100 +/- 1.07 %); assay type: functional; parameters: scale not given: the % may be the effect or the level left; conditions: 0.75 h
[11] = Toxicity against cyclophosphamide-immunosuppressed golden syrian hamster assessed as loss of body weight at 1 mg/kg, administered for 14 days; assay type: organism-based, Mesocricetus auratus; conditions: in vivo, 336 h, time 14 day
Human adenovirus 5 [12] = experiment: Antiviral activity against Human adenovirus 5 infected in 293beta5 cells assessed as inhibition of virus infection at 10 fold IC50 measured after 60 mins by GFP reporter gene assay relative to control; assay type: functional, HEK293; conditions: 1 h
Human betaherpesvirus 5 [13] = experiment: Antiviral activity against human cytomegalovirus infected in HFF cells assessed as inhibition of viral replication by measuring number of DNA copies at 5 uM incubated for 72 hrs by RT-PCR analysis (reference value: 100 +/- 25.56 %); assay type: functional; parameters: scale not given: the % may be the effect or the level left
Human betaherpesvirus 5 [14] = experiment: Antiviral activity against human cytomegalovirus infected in HFF cells assessed as inhibition of viral replication by measuring number of viral DNA copies at 7.8 uM incubated for 72 hrs by RT-PCR analysis (reference value: 100 +/- 25.56 %); assay type: functional; parameters: scale not given: the % may be the effect or the level left
Human adenovirus 5 [15] = experiment: Antiviral activity against Human adenovirus 5 infected in 293beta5 cells assessed as inhibition of virus infection at 10 fold of IC50 measured at 0 min by GFP reporter gene assay relative to control; assay type: functional, HEK293
Human adenovirus 5 [16] = experiment: Antiviral activity against wild-type Human adenovirus 5 infected in human A549 cells assessed as inhibition of viral DNA replication by measuring number of viral DNA copies at 7.8 uM after 24 hrs by RT-qPCR analysis (reference value: 100 +/- 0.16 %); assay type: functional; parameters: scale not given: the % may be the effect or the level left
Human adenovirus 5 [17] = experiment: Antiviral activity against wild-type Human adenovirus 5 infected in human A549 cells assessed as inhibition of viral DNA replication by measuring number of viral DNA copies at 9 uM after 24 hrs by RT-qPCR analysis (reference value: 100 +/- 0.16 %); assay type: functional; parameters: scale not given: the % may be the effect or the level left
Human betaherpesvirus 5 [18] = experiment: Antiviral activity against human cytomegalovirus infected in HFF cells assessed as inhibition of viral replication by measuring number of viral DNA copies at 9 uM incubated for 72 hrs by RT-PCR analysis (reference value: 100 +/- 25.56 %); assay type: functional; parameters: scale not given: the % may be the effect or the level left
Human adenovirus 5 [19] = experiment: Antiviral activity against wild-type Human adenovirus 5 infected in human A549 cells assessed as inhibition of viral DNA replication by measuring number of viral DNA copies at 5 uM after 24 hrs by RT-qPCR analysis (reference value: 100 +/- 0.16 %); assay type: functional; parameters: scale not given: the % may be the effect or the level left
Human adenovirus 5 [20] = experiment: Antiviral activity against wild-type Human adenovirus 5 infected in human A549 cells assessed as inhibition of viral DNA replication by measuring number of viral DNA copies at […] after 24 hrs by RT-qPCR analysis (reference value: 100 +/- 0.16 %); assay type: functional; parameters: scale not given: the % may be the effect or the level left; conditions: dose 11.1 µM
Human betaherpesvirus 5 [21] = experiment: Antiviral activity against human cytomegalovirus infected in HFF cells assessed as inhibition of viral replication by measuring number of viral DNA copies at […] incubated for 72 hrs by RT-PCR analysis (reference value: 100 +/- 25.56 %); assay type: functional; parameters: scale not given: the % may be the effect or the level left; conditions: dose 11.1 µM
Human adenovirus 5 [22] = experiment: Antiviral activity against wild-type Human adenovirus 5 infected in human A549 cells assessed as inhibition of viral DNA replication by measuring number of viral DNA copies at 12.7 uM after 24 hrs by RT-qPCR analysis (reference value: 100 +/- 0.16 %); assay type: functional; parameters: scale not given: the % may be the effect or the level left
Human betaherpesvirus 5 [23] = experiment: Antiviral activity against human cytomegalovirus infected in HFF cells assessed as inhibition of viral replication by measuring number of viral DNA copies at 12.7 uM incubated for 72 hrs by RT-PCR analysis (reference value: 100 +/- 25.56 %); assay type: functional; parameters: scale not given: the % may be the effect or the level left

| SMILES | selectivity ratio at 48 h [3] | inhibition at 10 µM (Human adenovirus 5 [5]) [%] | IC50 (Human adenovirus 5 [6]) [µM] | CC50 at 48 h [9] [µM] | also measured |
| --- | --- | --- | --- | --- | --- |
| CC1(Nc2ccc(NC(=O)c3cc(Cl)ccc3O)c(Cl)c2)CCCC1 | 581 | 100 | 0.27 | 157 | fold change (FC) (Human adenovirus 5 [1]): 52.6; Activity (Human adenovirus 5 [2]): 20.21%; Activity (Human betaherpesvirus 5 [4]): 91.25%; inhibition (INH) (Human adenovirus 5 [7]): <50%; IC50 (Human adenovirus 5 [8]): 15.2 µM; Activity (Human adenovirus 5 [10]): 53.7% |
| O=C(Nc1ccc([N+](=O)[O-])cc1Cl)c1cc(Cl)ccc1O [NICLOSAMIDE] | – | 100 | 0.6 | – | Activity [11]: Non-Toxic; inhibition (INH) (Human adenovirus 5 [12]): >=50%; Activity (Human betaherpesvirus 5 [13]): 1.7% |
| O=C(Nc1ccc(NCc2ccc(O)nc2)cc1Cl)c1cc(Cl)ccc1O | 126 | 100 | 0.78 | 98.5 | Activity (Human betaherpesvirus 5 [14]): 18.18%; fold change (FC) (Human adenovirus 5 [1]): 26.6; inhibition (INH) (Human adenovirus 5 [15]): <50%; Activity (Human adenovirus 5 [16]): 53.62%; IC50 (Human adenovirus 5 [8]): > 50 µM; Activity (Human adenovirus 5 [10]): 13.6% |
| CC(C)(CCO)Nc1ccc(NC(=O)c2cc(Cl)ccc2O)c(Cl)c1 | 188 | – | 0.9 | 170 | fold change (FC) (Human adenovirus 5 [1]): 15.7; inhibition (INH) (Human adenovirus 5 [15]): <50%; Activity (Human adenovirus 5 [17]): 65.04%; Activity (Human betaherpesvirus 5 [18]): 14.35%; Activity (Human adenovirus 5 [10]): 99.97% |
| O=C(Nc1ccc(NCc2ccc(Br)s2)cc1Cl)c1cc(Cl)ccc1O | 8 | 100 | 2.58 | 20.7 | – |
| CN(C)c1ccc(NC(=O)c2cc(Cl)ccc2O)c(Cl)c1 | 44.3 | 100 | 1.92 | 85.1 | – |
| O=C(Nc1ccc(NCC2CC2)cc1Cl)c1cc(Cl)ccc1O | 10.4 | 100 | 1.38 | 14.4 | – |
| O=C(Nc1ccc(NCC2CCCC2)cc1Cl)c1cc(Cl)ccc1O | 17.3 | 100 | 1.24 | 21.5 | – |
| O=C(Nc1ccc(NC2CCCC2)cc1Cl)c1cc(Cl)ccc1O | 186 | 100 | 0.5 | 92.9 | fold change (FC) (Human adenovirus 5 [1]): 17.1; Activity (Human adenovirus 5 [19]): 14.42%; inhibition (INH) (Human adenovirus 5 [12]): >=50%; Activity (Human betaherpesvirus 5 [13]): 100%; Activity (Human adenovirus 5 [10]): 98.84% |
| O=C(Nc1ccc(NCc2ccccc2)cc1Cl)c1cc(Cl)ccc1O | 7.8 | 100 | 2.52 | 19.7 | – |
| CC(C)CNc1ccc(NC(=O)c2cc(Cl)ccc2O)c(Cl)c1 | 67.4 | 100 | 0.89 | 60 | – |
| CCN(CC)c1ccc(NC(=O)c2cc(Cl)ccc2O)c(Cl)c1 | 64.5 | 100 | 0.86 | 55.5 | – |
| O=C(Nc1ccc(NCc2cccnc2Cl)cc1Cl)c1cc(Cl)ccc1O | 21 | 100 | 4.78 | 100 | – |
| O=C(Nc1ccc(NCc2ccc(O)cc2)cc1Cl)c1cc(Cl)ccc1O | 104 | – | 1.11 | 116 | fold change (FC) (Human adenovirus 5 [1]): 17.4; inhibition (INH) (Human adenovirus 5 [12]): >=50%; IC50 (Human adenovirus 5 [8]): 25 µM; Activity (Human adenovirus 5 [20]): 83.72%; Activity (Human betaherpesvirus 5 [21]): 15.71%; Activity (Human adenovirus 5 [10]): 11.56% |
| O=C(Nc1ccc(NCc2ccc(F)cc2)cc1Cl)c1cc(Cl)ccc1O | 16 | 100 | 3.4 | 54.4 | – |
| CCCCCCC(C)Nc1ccc(NC(=O)c2cc(Cl)ccc2O)c(Cl)c1 (configuration not stated) | 73.4 | 100 | 0.32 | 23.5 | – |
| CCNc1ccc(NC(=O)c2cc(Cl)ccc2O)c(Cl)c1 | 13.9 | 100 | 2.18 | 30.2 | – |
| O=C(Nc1ccc(NC2CCCC2)c(Cl)c1)c1cc(Cl)ccc1O | 20.1 | 100 | 0.84 | 16.9 | – |
| O=C(Nc1ccc(NCc2ccc(Cl)cc2)cc1Cl)c1cc(Cl)ccc1O | 49.7 | 100 | 1.2 | 59.7 | – |
| CC(C)(Cc1ccccc1)ON(c1ccc(NC(=O)c2cc(Cl)ccc2O)c(Cl)c1)C(C)(C)Cc1ccccc1 | 130 | 100 | 1.27 | 165 | fold change (FC) (Human adenovirus 5 [1]): 21.5; inhibition (INH) (Human adenovirus 5 [7]): <50%; IC50 (Human adenovirus 5 [8]): 34.1 µM; Activity (Human adenovirus 5 [22]): 2.37%; Activity (Human betaherpesvirus 5 [23]): 9.15%; Activity (Human adenovirus 5 [10]): 95.87% |
| O=C(Nc1ccc(NCc2cc(C(F)(F)F)cc(C(F)(F)F)c2)cc1Cl)c1cc(Cl)ccc1O | 82.9 | 100 | 1.12 | 92.8 | – |
